Experimental data taken from patent publication US11655244B2, “Carbazole compounds and methods of use thereof” (GSNO Therapeutics, Inc, priority 2017, dated 2023).

Experiments:
GSNOR enzyme [1] = target: T1, GSNOR enzyme (Homo sapiens, UniProt P11766); experiment: GSNOR inhibition assay (rate of NADH consumption, 340 nm absorbance); assay type: biochemical; settings: Table 2b; test compound 20 uM; read-out: % GSNOR Inhibition at 20 uM
Experimental: The following compounds were also prepared based on the methods described herein, using the appropriate starting materials. Table 2a and Table 2b also provides the % GSNOR inhibition at 20 μM of compounds described herein. […] The buffer was 100 mM phosphate buffer (pH 7.4.) The rate of NADH consumption for each well was determined by ultraviolet spectroscopy. Plates were read on a Molecular Devices Spectra Max UV/Visible Spectrophotometer/plate reader and the change in 340 nm absorbance at 25° C. was recorded for each well at 10 sec intervals over the duration of the recording period (2˜5 minutes). The rate was measured from the linear portion of the curve. Final test compound concentration was 20 μM. The mean % inhibition from 3 test compound wells and 5 control wells was measured as the percentage of the mean no compound+enzyme−the mean no enzyme, no compound control.

GSNOR enzyme [2] = target: T1, GSNOR enzyme; experiment: as above; assay type: biochemical; settings: Table 2b; read-out: IC50 Micromolar
IL-6 = experiment: LPS/cytokine assay (mouse inflammation assay), IL-6; assay type: in vivo, CD-1 male mice; settings: CD-1 male mice; IP or IV; cytokine typically 6 hrs after LPS
Experimental: Table 2b also includes additional biological data of compounds described herein. The LPS/cytokine Assay was carried out in CD-1 male mice. The assay measured the level of various cytokines, including IL-6, IL-17, and IL-23, after induction by bacterial liposaccharide (LPS). Compounds were dosed by IP or IV routes of administration at varying times before and after LPS and the cytokine concentrations were measured at varying times, typically 6 hrs, after LPS by standard methods using ELISA kits.
BIOLOGICAL TESTING: Compounds 10 and 17 from Table 1 were tested in a mouse inflammation assay. Briefly, CD-1 mice were dosed with compound, 12 hrs before injecting mice I.P. with the potent cytokine inducer, bacterial lipopolysaccharide (LPS). The mice were euthanized 6 hrs after the LPS was injected and their serum prepared by standard methods. The concentration of IL-6 in the serum of each experimental animal was measured using an IL-6 ELISA kit from Enzo. The compounds tested were active.
This LPS/cytokine assay was carried out in healthy mice and measured the level of cytokine IL-6, IL-17, and 23 induction by LPS. Compounds are dosed (either orally (“p.o.”) or intravenously (“i.v.”) at varying times before and after LPS, and the cytokines are measured at varying times after LPS. The effect of the tested compounds (Table 5) on IL-6 release is shown in FIG. 7. The effect of the tested compounds (Table 6) on IL-17 an IL-23 release is shown in FIG. 11 and FIG. 12, respectively.

[3] = system: Bleomycin-induced idiopathic pulmonary fibrosis model in male C57BL/6 mice; experiment: Bleomycin-induced idiopathic pulmonary fibrosis model; assay type: in vivo; settings: 100 mg/kg, p.o., b.i.d., from day 14 to 28
Experimental: Compound 17 was made-up fresh every 4 days. A required amount of the test compound was weighed in a glass vial and the purity factor was calculated. A stock solution of 1 mg/ml (10 mg/kg) was made in distilled water (pH 8) and the subsequent 3 and 1 mg/kg doses (concentrations) were obtained by serial dilution of the 1 mg/ml stock solution. A clear and transparent solution was observed. Animals were dosed with Compound 17 at 1 mg/kg, 3 mg/kg and 10 mg/kg, i.p (intraperitoneal), once daily from day 14 to 28.
Pirfenidone was weighed in a glass vial and suspended in 0.5% methyl cellulose to obtain a 10 mg/ml formulation. A clear homogenous suspension was observed. Animals were dosed with Pirfenidone at 100 mg/kg, p.o., b.i.d., from day 14 to 28.

T1 sequence (P11766 whole entry): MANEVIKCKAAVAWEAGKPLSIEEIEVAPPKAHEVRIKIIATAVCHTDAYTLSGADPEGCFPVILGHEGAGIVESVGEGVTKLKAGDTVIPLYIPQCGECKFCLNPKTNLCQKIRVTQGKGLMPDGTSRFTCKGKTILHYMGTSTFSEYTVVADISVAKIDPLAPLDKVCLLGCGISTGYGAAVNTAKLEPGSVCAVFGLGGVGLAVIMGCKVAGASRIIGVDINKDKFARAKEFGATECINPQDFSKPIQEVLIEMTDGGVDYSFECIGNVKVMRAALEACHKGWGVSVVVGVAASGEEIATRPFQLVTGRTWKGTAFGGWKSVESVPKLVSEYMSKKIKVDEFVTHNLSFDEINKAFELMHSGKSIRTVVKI

| inhibition at 20 µM (GSNOR enzyme [1]) [%] | IC50 (GSNOR enzyme [2]) [nM] | SMILES | LPS/IL6 Lowest tested active (IL-6) [mg/kg] | pulmonary fibrosis (Ashcroft score and percentage collagen proportionate area) vs disease control [3] |
| --- | --- | --- | --- | --- |
| 92.9 | < 1000 | N#CCCCCn1c2ccc(-n3ccnc3)cc2c2ccc(CCC(=O)O)cc21 [Compound 31] | 0.3 | – |
| – | – | Cc1ccc(=O)n(-c2ccccc2)c1 [Pirfenidone, reference compound] | – | notable mitigation of pulmonary fibrosis |
